Data: ChEMBL document CHEMBL4706560, “Design, synthesis and biological evaluation of indole-2-one derivatives as potent BRD4 inhibitors” (Eur J Med Chem, 2020)

Experiments:
[1] = system: WI-38; assay: Antiproliferative activity against human WI-38 cells incubated for 72 hrs by MTT assay; settings: WI-38, 72 h
[2] = system: HL-60; assay: Antiproliferative activity against human HL60 cells incubated for 72 hrs by CCK8 assay; settings: HL-60, 72 h
[3] = system: HT-29; assay: Antiproliferative activity against human HT29 cells incubated for 72 hrs by MTT assay; settings: HT-29, 72 h
[4] = target: T1, Bromodomain-containing protein 4 (Homo sapiens, UniProt O60885); assay: Inhibition of BRD4 BD1 (unknown origin) preincubated for 15 mins followed by peptide addition and measured after 60 mins by TR-FRET assay
[5] = target: T2, Bromodomain-containing protein 2 (Homo sapiens, UniProt P25440); assay: Inhibition of BRD2 BD2 (unknown origin) preincubated for 15 mins followed by peptide addition and measured after 60 mins by TR-FRET assay
T2 sequence (P25440 whole entry): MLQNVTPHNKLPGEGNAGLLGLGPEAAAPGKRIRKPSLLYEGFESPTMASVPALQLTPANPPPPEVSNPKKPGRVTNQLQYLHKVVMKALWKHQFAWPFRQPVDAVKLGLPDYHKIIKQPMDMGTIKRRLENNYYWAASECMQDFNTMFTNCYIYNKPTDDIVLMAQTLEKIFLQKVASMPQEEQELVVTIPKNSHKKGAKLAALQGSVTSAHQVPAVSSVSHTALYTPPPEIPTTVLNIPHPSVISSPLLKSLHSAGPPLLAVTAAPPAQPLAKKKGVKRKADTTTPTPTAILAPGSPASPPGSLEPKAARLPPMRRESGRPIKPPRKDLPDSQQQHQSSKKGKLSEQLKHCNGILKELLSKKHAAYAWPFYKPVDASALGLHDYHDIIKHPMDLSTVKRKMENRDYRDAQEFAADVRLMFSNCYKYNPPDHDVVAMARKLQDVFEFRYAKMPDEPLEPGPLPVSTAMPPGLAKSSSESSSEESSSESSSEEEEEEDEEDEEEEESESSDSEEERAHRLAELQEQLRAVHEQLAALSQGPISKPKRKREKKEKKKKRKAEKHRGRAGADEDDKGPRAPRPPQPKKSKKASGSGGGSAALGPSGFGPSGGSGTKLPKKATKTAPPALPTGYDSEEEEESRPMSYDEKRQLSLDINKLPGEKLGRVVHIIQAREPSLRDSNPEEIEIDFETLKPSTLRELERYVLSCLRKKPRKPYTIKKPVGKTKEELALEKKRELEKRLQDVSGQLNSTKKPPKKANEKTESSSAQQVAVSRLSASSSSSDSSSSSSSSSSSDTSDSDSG

[6] = target: T2, Bromodomain-containing protein 2; assay: Inhibition of BRD2 BD1 (unknown origin) preincubated for 15 mins followed by peptide addition and measured after 60 mins by TR-FRET assay
[7] = target: T1, Bromodomain-containing protein 4; assay: Inhibition of BRD4 BD2 (unknown origin) preincubated for 15 mins followed by peptide addition and measured after 60 mins by TR-FRET assay
[8] = Half life in Wistar rat at 15 mg/kg, po measured up to 24 hrs by LC-MS/MS analysis; type: ADME, organism-based; settings: in vivo
[9] = Cmax in Wistar rat at 15 mg/kg, po measured up to 24 hrs by LC-MS/MS analysis; type: ADME, organism-based; design: route oral, dose 15 mg/kg, time <=24; settings: in vivo
[10] = Apparent clearance during terminal phase in Wistar rat at 5 mg/kg, iv measured up to 24 hrs by LC-MS/MS analysis; type: ADME, organism-based; settings: in vivo
[11] = AUC(0 to t) in Wistar rat at 5 mg/kg, iv measured up to 24 hrs by LC-MS/MS analysis; type: ADME, organism-based; design: route intravenous, dose 5 mg/kg, time <=24; settings: in vivo
[12] = Half life in Wistar rat at 5 mg/kg, iv measured up to 24 hrs by LC-MS/MS analysis; type: ADME, organism-based; settings: in vivo
[13] = Apparent clearance during terminal phase in Wistar rat at 15 mg/kg, po measured up to 24 hrs by LC-MS/MS analysis; type: ADME, organism-based; settings: in vivo, read-out: CLz/F (converted)
[14] = AUC(0 to t) in Wistar rat at 15 mg/kg, po measured up to 24 hrs by LC-MS/MS analysis; type: ADME, organism-based; design: route oral, dose 15 mg/kg, time <=24; settings: in vivo
[15] = AUC(0 to infinity) in Wistar rat at 5 mg/kg, iv measured up to 24 hrs by LC-MS/MS analysis; type: ADME, organism-based; design: route intravenous, dose 5 mg/kg, time <=24; settings: in vivo
[16] = Oral bioavailability in Wistar rat at 15 mg/kg measured up to 24 hrs by LC-MS/MS analysis; type: ADME, organism-based; settings: in vivo
[17] = AUC(0 to infinity) in Wistar rat at 15 mg/kg, po measured up to 24 hrs by LC-MS/MS analysis; type: ADME, organism-based; design: route oral, dose 15 mg/kg, time <=24; settings: in vivo
[18] = Tmax in Wistar rat at 15 mg/kg, po measured up to 24 hrs by LC-MS/MS analysis; type: ADME, organism-based; settings: in vivo

## Cc1sc2c(c1C)C(c1ccc(Cl)cc1)=N[C@@H](CC(=O)OC(C)(C)C)c1nnc(C)n1-2
[1]
  IC50: 4970 nM
[2]
  IC50: 160 nM
[3]
  IC50: 480 nM

## COc1ccccc1S(=O)(=O)Nc1ccc2c(c1)CN(C)C(=O)N2
[1]
  IC50: 19800 nM
[2]
  IC50: 3990 nM
[3]
  IC50: 14700 nM

## CC(C)=C1C(=O)Nc2ccc(NS(=O)(=O)c3cccc4c(N(C)C)cccc34)cc21
[4]
  IC50: 208 nM

## COc1ccc(Br)cc1S(=O)(=O)Nc1ccc2c(c1)C(=C(C)C)C(=O)N2
[5]
  IC50: 22 nM
[6]
  IC50: 39 nM
[4]
  IC50: 23 nM
[7]
  IC50: 21 nM

## COc1ccccc1S(=O)(=O)Nc1ccc2c(c1)C(=C1CCC1)C(=O)N2
[4]
  IC50: 26 nM

## CC(C)=C1C(=O)Nc2ccc(NS(=O)(=O)C3CCCCC3)cc21
[4]
  IC50: 22 nM

## COc1ccc(S(=O)(=O)Nc2ccc3c(c2)C(=C(C)C)C(=O)N3)cc1
[4]
  IC50: 94 nM

## COc1ccccc1S(=O)(=O)Nc1ccc2c(c1)C(=C(C)C)C(=O)N2
[5]
  IC50: 18 nM
[6]
  IC50: 24 nM
[8]
  half-life: 3.59 h
[9]
  Cmax: 2180 ng/mL
[10]
  CLz/F: 11.3 mL/min/kg
[11]
  AUC(0-t) at 24 h: 7300 ng·h/mL
[12]
  half-life: 1.56 h
[13]
  CL/F: 17.2 mL/min/kg
[14]
  AUC(0-t) at 24 h: 14400 ng·h/mL
[15]
  AUC(0-inf): 7340 ng·h/mL
[16]
  bioavailability: 66%
[17]
  AUC(0-inf): 14600 ng·h/mL
[18]
  Tmax: 1 h

## CC(C)=C1C(=O)Nc2ccc(NS(=O)(=O)c3cccc4ccccc34)cc21
[4]
  IC50: 62 nM

## COc1ccc(F)cc1S(=O)(=O)Nc1ccc2c(c1)C(=C(C)C)C(=O)N2
[4]
  IC50: 34 nM

## COc1ccc(C)cc1S(=O)(=O)Nc1ccc2c(c1)C(=C(C)C)C(=O)N2
[4]
  IC50: 30 nM

## CC(C)=C1C(=O)Nc2ccc(NS(=O)(=O)c3cc(C)ccc3F)cc21
[4]
  IC50: 20 nM

## C/C=C1\C(=O)Nc2ccc(NS(=O)(=O)c3ccccc3OC)cc21
[4]
  IC50: 36 nM

## CC/C=C1\C(=O)Nc2ccc(NS(=O)(=O)c3ccccc3OC)cc21
[4]
  IC50: 114 nM

## CC(C)=C1C(=O)Nc2ccc(NS(=O)(=O)c3cc(F)ccc3F)cc21
[4]
  IC50: 56 nM

## CC(C)=C1C(=O)Nc2ccc(NS(=O)(=O)c3ccc4c(c3)CCO4)cc21
[4]
  IC50: 92 nM

## CC(C)=C1C(=O)Nc2ccc(NS(=O)(=O)c3ccc4ccccc4c3)cc21
[4]
  IC50: 203 nM

## CC(C)=C1C(=O)Nc2ccc(NS(=O)(=O)c3ccccc3Br)cc21
[5]
  IC50: 25 nM
[6]
  IC50: 40 nM
[4]
  IC50: 25 nM
[7]
  IC50: 43 nM
